Experimental findings from publication PMC6438679, “New lupeol esters as active substances in the treatment of skin damage” (PLoS ONE, 2019) are described below.

Structures are written as SMILES. Structures can show the parent of a compound that is named as a salt.

By melting point is commonly meant the temperature, or range, at which the solid turns liquid.

Data set [1] deals with Reconstructed Human Epidermis (RHE) EpiDerm. Nature of the data set: In vitro Skin Irritation Test on Reconstructed Human Epidermis (MTT viability). The note with it: for increase of cell concentration in comparison to control samples: RHE model, proliferation.
Procedure: A Skin Irritation Test was prepared according to SOP (Standard Operation Protocol) of In vitro Skin Irritation Test (ECVAM): Human Skin Model, EpiDerm-200, Version: 7.0, 30th Oct 2007.
Standard EpiDermFT kit (MatTek Corporation) consisted of 24 tissues. Costar Snapwell single well tissue culture plate inserts had the surface area of about 1.0 cm^2 and the diameter of about 1.2 cm. Moreover inserts were equipped with pores (size 0.4 μm diameter). Before test, all tissues were visually inspected if there are any physical imperfections. […] The culture medium was fed through a microporous membrane. The tissue contained 8–12 cell layers plus stratum corneum (basal, spinous, and granular layers) [35].
In vitro skin irritation test was prepared according to the procedure described by Kandarova et al. [35]. On the first day, tissues were topically exposed to the oil solutions of tested triterpenes. White crystals of each compound were dissolved in caprylic and capric triglyceride (Crodamol GTCC, Croda). The esters concentration in the solutions was 0.5% (m/m). Three tissues were used for each tested substance, as well as for the positive and negative control. Positive control solution consisted of 5% aq. solution of SDS (Sodium Dodecyl Sulfate, Mattek), and a negative control solution consisted of Caprylic and Capric Triglycerides (Crodamol GTCC, Croda). Chemical exposure time was 60 min, during which, for 35 min, the tissues were kept in an incubator at 37°C (chamber Heraeus, Kendro). The test substances were then removed from the tissue surface by an extensive washing procedure using DPBS (phosphate-buffered saline, pH = 7.4, Mattek). The tissue inserts were blotted and transferred to fresh medium.
After 24 hours of incubation, the medium was exchanged and the tissues were incubated for an additional 18 hours. After 42 hours of incubation time, the tissues were transferred into a yellow solution of MTT (3-(4,5-dimethylthiazol-2-yl)-2,5-diphenyltetrazolium bromide, Mattek) and incubated for a further 3 hours. The resultant purple-blue formazan salt, formed mainly by mitochondrial metabolism, was extracted after 2 hours with isopropanol, pure (Mattek). The optical density (OD570) of the extracted formazan solution was determined using a spectrophotometer (Biotek, PowerWave XS). Cells viability assay was calculated referring to the negative control tissues. A substance is classified as an irritant if the tissue viability relative to the negative control treated tissues is reduced below 50%.

Take `C=C(C)[C@@H]1CC[C@]2(C)CC[C@]3(C)[C@H](CC[C@@H]4[C@@]5(C)CC[C@H](OC(=O)c6ccncc6)C(C)(C)[C@@H]5CC[C@]43C)[C@@H]12` [Compound 4, Lupeol isonicotinate]: the melting point is 179 to 183 °C. The “increase of cell concentration in comparison to control samples” value (from here on “increase of cell concentration”) in data set [1] is reported as “more than 30%”.
`CCCCCCCCCCCCOS(=O)(=O)[O-].[Na+]` [PC, Sodium Dodecyl Sulfate, reference compound]: the “Viability [%] / SD” value in data set [1] (Epiderm, 0.5% (m/m) in caprylic and capric triglyceride, 60 min exposure, 42 h incubation, MTT, relative to negative control, n = 3) was found to be 28.1%.
As to `C=C(C)C1CCC2(C)CCC3(C)C(CCC4C5(C)CCC(OC(=O)CC)C(C)(C)C5CCC43C)C12` (stereo not drawn) [Compound 3, Lupeol propionate], the melting point lay within 220 to 222 °C. The “increase of cell concentration” value in data set [1] is given as “more than 30%”.
`C=C(C)[C@@H]1CC[C@]2(C)CC[C@]3(C)[C@H](CC[C@@H]4[C@@]5(C)CC[C@H](OC(=O)c6ccccc6OC(C)=O)C(C)(C)[C@@H]5CC[C@]43C)[C@@H]12` [Compound 6, Lupeol acetylsalicylate] displayed a melting point of 226 to 229 °C.
`C=C(C)C1CCC2(C)CCC3(C)C(CCC4C5(C)CCC(OC(C)=O)C(C)(C)C5CCC43C)C12` (stereo not drawn) [Compound 2, Lupeol acetate] gave a melting point of 216 to 219 °C. Further, the “increase of cell concentration” value in data set [1] is reported as “more than 30%”.
`C=C(C)C1CCC2(C)CCC3(C)C(CCC4C5(C)CCC(OC(=O)CCC(=O)O)C(C)(C)C5CCC43C)C12` (stereo not drawn) (as salt: succinate) [Compound 5, Lupeol succinate] had a melting point of 221 to 223 °C.
